In one experiment the test system is DU145. The experiment can be described thus: Growth inhibition IC50, parent line. The class given is cell-based. The settings on record: Homo sapiens, DU-145. As for the experimental part: (§1) PrC cell lines resistant to Estramustine (ESM) were developed as the clinical use of this drug induces significant side effects and drug resistance. The procedure of Mohr was used as described in the Supplementary Information.
(§2) Supplementary Information
(§3) Development of drug resistant cell lines
(§4) Cells were seeded in 3 flasks. […]
(§5) parent cell line was calculated. […]
(§6) to the drug within 2–4 weeks.
(§7) Table S1: IC50 values for parent and Estramustine-resistant prostate cancer cell lines are also multidrug re-sistant to Camptothecin and Docetaxel. Drugs
(§8) Estramustine Camptothecin Docetaxel […]

The subject of the next experiment is PC3. Kind of experiment: Growth inhibition IC50, parent line. The class given is cell-based. The following applies: Homo sapiens, PC-3. As for the experimental part: as §1, §2, §3, §4, §5, §6, §7, §8
A further experiment has as its system 22RV1. Kind of experiment: Growth inhibition IC50, parent line. The class given is cell-based. The following applies: Homo sapiens; 22RV1 parent line. Here is the method: as §1, §2, §3, §4, §5, §6, §7, §8
For experiment [1], the system named is Estramustine-resistant 22RV1. The experiment can be described thus: Growth inhibition IC50, Estramustine-resistant line. The class given is cell-based. The following applies: Homo sapiens; 22RV1 Estramustine-resistant line. Here is the method:
as §1, §2, §3, §4, §5, §6, §7, §8

Experiment [2] deals with Estramustine-resistant DU145. The description is as above. The class given is cell-based. The settings on record: Homo sapiens, DU-145. As for the experimental part: as §1, §2, §3, §4, §5, §6, §7, §8
In experiment [3] the test system is Estramustine-resistant PC3. The experiment is described as above. It counts as cell-based. The settings on record: Homo sapiens. As for the experimental part:
as §1, §2, §3, §4, §5, §6, §7, §8

In another experiment the test system is PC3 tumors. The experiment can be described thus: Xenograft anti-tumor efficacy. It counts as in vivo, athymic nu/nu mice. The settings on record: 5 mg/kg, tail vein, twice weekly for four weeks, n = 5. As for the experimental part:
As described above, a xenograft tumor model was established by injecting mice with PC3 cells. Tumor growth was monitored regularly, and mice were randomized into one of four groups (n = 5 per group) when their tumor volume reached approximately 140 mm^3 (approx. day 16 post-injection) so as to ensure the equal distribution of tumor burden among the groups. The mice were treated twice weekly for four weeks via tail vein injection as follows. Group 1 (Control) received vehicle only; Group 2 (free SN-38) received SN38 at a dose of 5 mg/kg; Group 3 (PDC 10 mg/kg) received PrC10-SN38 at a dose of 10 mg/kg; Group 4 (PDC 20 mg/kg) received PrC10-SN38 at a dose of 20 mg/kg. Tumor volume was measured regularly until day 44 from the initiation of treatment, after which all mice were euthanized via CO2 inhalation.

The next experiment deals with PrC cell lines. Kind of experiment: Dose-response of PrC cell lines to ESM. It counts as cell-based. The following applies: Homo sapiens; range over the PrC cell lines, Figure S2; read-out: IC50s for ESM. Here is the method:
as §1
ESM-resistant lines developed following more than 6 months of exposure to the drug.
as §2, §3
Cells were seeded in 3 flasks.
parent cell line was calculated.
as §6

In the case of `CC[C@@]1(O)C(=O)OCc2c1cc1n(c2=O)Cc2cc3ccccc3nc2-1` [Camptothecin], the IC50 was 10 nM in the experiment on DU145; 45 nM with PC3; 7 nM in the experiment on 22RV1; 23 nM in experiment [1]; 100 nM in experiment [2]; 200 nM in experiment [3].
Turning to `CCc1c2c(nc3ccc(O)cc13)-c1cc3c(c(=O)n1C2)COC(=O)[C@]3(O)CC` [free SN-38, SN-38], in the experiment on PC3 tumors, the tumor growth result is recorded as “did not inhibit tumor growth”.
Take `CC(=O)O[C@@]12CO[C@@H]1C[C@H](O)[C@@]1(C)C(=O)[C@H](O)C3=C(C)[C@@H](OC(=O)[C@H](O)[C@@H](NC(=O)OC(C)(C)C)c4ccccc4)C[C@@](O)([C@@H](OC(=O)c4ccccc4)[C@H]21)C3(C)C` [Docetaxel]: the IC50 in the experiment with DU145 stood at 3 nM; with PC3 it was 4 nM; in the experiment on 22RV1, 3 nM; in experiment [1] it was 4 nM; in experiment [2], 5 nM; in experiment [3], 10 nM.
Turning to `C[C@]12CC[C@@H]3c4ccc(OC(=O)N(CCCl)CCCl)cc4CC[C@H]3[C@@H]1CC[C@@H]2O` [Estramustine], the IC50 with PrC cell lines was 1400 to 1750 nM; with DU145, 8000 nM; in the experiment on PC3 it was 10000 nM; in the experiment with 22RV1, 8000 nM; in experiment [1], 30000 nM; in experiment [2] it was 8000 nM. Also, the IC50 in experiment [3] is 24000 nM.

The values above are taken from publication PMC12298539, “Applying Unbiased, Functional Criteria Allows Selection of Novel Cyclic Peptides for Effective Targeted Drug Delivery to Malignant Prostate Cancer Cells” (Pharmaceutics, 2025).
